Patent US9890166B2, “Imidazopyrrolidine derivatives and their use in the treatment of disease” (NOVARTIS AG, priority 2013, dated 2018)

How the values were obtained:
BRD3 (His-Brd3(20-477)) = BRD3 (His-Brd3(20-477)) (Homo sapiens (Human), UniProt Q15059); test: TR-FRET in-vitro binding assay for BRD3; settings: single determination or n ≧ 2 independent determinations, read-out: Biochemical IC50 BRD3
Method in brief: (§1)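 TR-FRET binding with His-tagged bromodomain constructs, 8-point compound dilutions from 10 mM DMSO stocks. Reactions incubated 35 min at 30° C in 13.55 μL, read on an EnVision multilabel reader.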

THP-1 cells = test: Cell growth inhibition assay (CellTiter-Glo), THP-1; settings: for GI50: Homo sapiens, THP-1, read-out: THP-1 GI50; for THP-1 TGI: THP-1 cells, total growth inhibition, CellTiter-Glo;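 as to all read-outs here: viability read as cellular ATP luminescence after 4 days, 3-fold dilution series from 10 µM, DMSO vehicle-treated cells taken as 100%, cell-free medium wells as −100%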
BRD2 (His-Brd2(60-472)) = BRD2 (His-Brd2(60-472)) (Homo sapiens (Human), UniProt P25440); test: TR-FRET in-vitro binding assay for BRD2; settings: single determination or n ≧ 2 independent determinations, read-out: Biochemical IC50 BRD2
Method in brief: as §1

MV-4-11 cells = test: Cell growth inhibition assay (CellTiter-Glo), MV-4-11; settings: for GI50: Homo sapiens, MV4-11, read-out: MV-4-11 GI50; for MV-4-11 TGI: MV-4-11 cells, total growth inhibition, CellTiter-Glo;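 as to all read-outs here: cellular ATP luminescence after 4 days, 3-fold dilution series from 10 µM top dose, vehicle (0.1% DMSO) set to 100%, cell-free medium set to −100%, day 0 corrected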
[1] = biological target: CREBBP bromodomain (His-CREBBP(1081-1197)) (Homo sapiens (Human), UniProt Q92793); test: AlphaScreen in-vitro binding assay for CREBBP; settings: single determination or n ≧ 2 independent determinations, read-out: Biochemical IC50 CREBBP
Method in brief: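 Reactions at 30 °C for 35 min, then Ni-chelate acceptor and streptavidin donor beads in HEPES pH 7.5, NaCl, Tween20, BSA, 60 min at room temperature. Eight-point compound series; IC50 by non-linear regression of percent inhibition.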

BRD4 (His-Brd4(44-477)) = BRD4 (His-Brd4(44-477)) (Homo sapiens (Human), UniProt O60885); test: TR-FRET in-vitro binding assay for BRD4; settings: single determination or n ≧ 2 independent determinations, read-out: Biochemical IC50 BRD4
Method in brief: as §1

K-562 cells = test: Cell growth inhibition assay (CellTiter-Glo), K-562; settings: for GI50: Homo sapiens, K562, read-out: K-562 GI50; for K-562 TGI: K-562 cells, total growth inhibition, CellTiter-Glo;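 as to all read-outs here: cellular ATP measured by luminescence after 4 days of exposure, 3-fold dilution series from 10 µM, DMSO vehicle-treated cells define 100%, cell-free medium wells −100%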

BRD3 (His-Brd3(20-477)), sequence (Q15059 20-477): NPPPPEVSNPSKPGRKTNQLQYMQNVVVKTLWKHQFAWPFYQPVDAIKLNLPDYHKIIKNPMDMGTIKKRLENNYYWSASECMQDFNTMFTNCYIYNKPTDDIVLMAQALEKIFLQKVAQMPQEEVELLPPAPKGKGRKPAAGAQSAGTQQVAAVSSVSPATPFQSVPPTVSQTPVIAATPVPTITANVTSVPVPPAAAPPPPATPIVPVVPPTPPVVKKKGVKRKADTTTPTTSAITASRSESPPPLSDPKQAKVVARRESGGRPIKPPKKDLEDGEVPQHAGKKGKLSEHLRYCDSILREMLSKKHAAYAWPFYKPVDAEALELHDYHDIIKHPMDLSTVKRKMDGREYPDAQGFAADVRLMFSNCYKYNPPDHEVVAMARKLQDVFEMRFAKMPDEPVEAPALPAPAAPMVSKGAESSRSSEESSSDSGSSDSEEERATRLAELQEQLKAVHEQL
BRD2 (His-Brd2(60-472)), sequence (P25440 60-472): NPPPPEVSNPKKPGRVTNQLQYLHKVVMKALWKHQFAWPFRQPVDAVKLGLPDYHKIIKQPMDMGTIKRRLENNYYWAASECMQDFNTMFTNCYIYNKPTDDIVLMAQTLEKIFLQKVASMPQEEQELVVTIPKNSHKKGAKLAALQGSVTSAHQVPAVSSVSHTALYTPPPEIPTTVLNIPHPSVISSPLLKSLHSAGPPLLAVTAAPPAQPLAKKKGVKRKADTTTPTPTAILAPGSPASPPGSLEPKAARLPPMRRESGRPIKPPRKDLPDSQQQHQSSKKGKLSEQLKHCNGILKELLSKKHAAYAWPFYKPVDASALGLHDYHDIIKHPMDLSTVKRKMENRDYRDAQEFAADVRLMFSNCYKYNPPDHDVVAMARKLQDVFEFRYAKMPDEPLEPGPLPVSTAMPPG
CREBBP bromodomain (His-CREBBP(1081-1197)), sequence (Q92793 1081-1197): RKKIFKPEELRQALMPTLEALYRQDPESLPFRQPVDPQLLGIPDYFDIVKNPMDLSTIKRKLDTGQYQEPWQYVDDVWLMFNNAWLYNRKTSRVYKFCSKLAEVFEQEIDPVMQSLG

| Structure (SMILES) | IC50 (BRD3 (His-Brd3(20-477))) [µM] | GI50 (THP-1 cells) [µM] | THP-1 TGI (THP-1 cells) [µM] | IC50 (BRD2 (His-Brd2(60-472))) [µM] | GI50 (MV-4-11 cells) [µM] | MV-4-11 TGI (MV-4-11 cells) [µM] | IC50 [1] [µM] | IC50 (BRD4 (His-Brd4(44-477))) [µM] | GI50 (K-562 cells) [µM] | K-562 TGI (K-562 cells) [µM] |
| --- | --- | --- | --- | --- | --- | --- | --- | --- | --- | --- |
| Cc1cc(N2C(=O)c3nc(C4=CCOCC4)[nH]c3C2c2ccc(Cl)cc2)cn(C)c1=O (stereo not drawn) [Example 134, 6-(4-chlorophenyl)-2-(3,6-dihydro-2H-pyran-4-yl)-5-(1,5-dimethyl-6-oxo-1,6-dihydropyridin-3-yl)-5,6-dihydropyrrolo[3,4-d]imidazol-4(1H)-one] | 0.035 | 0.12 | 0.399 | 0.08 | 0.0724 | 0.141 | 1.68 | 0.038 | 0.61 | >10 |
| Cc1cc(N2C(=O)c3nc(C4CCOCC4)n(C(C)C)c3C2c2ccc(Cl)cc2)nn2c(C)nnc12 (stereo not drawn) [Example 101, 6-(4-chlorophenyl)-5-(3,8-dimethyl-[1,2,4]triazolo[4,3-b]pyridazin-6-yl)-1-isopropyl-2-(tetrahydro-2H-pyran-4-yl)-5,6-dihydropyrrolo[3,4-d]imidazol-4(1H)-one] | 0.024 | 0.00349 | 0.01105 | 0.034 | 0.00187 | 0.00411 | 19.6 | 0.023 | 0.0155 | >10 |
| Cc1cc(N2C(=O)c3nc(C4=CCN(C(=O)OCC(C)C)CC4)n(C(C)C)c3C2c2ccc(Cl)cc2)cn2c(C)nnc12 (stereo not drawn) [Example 69, isobutyl 4-(6-(4-chlorophenyl)-5-(3,8-dimethyl-[1,2,4]triazolo[4,3-a]pyridin-6-yl)-1-isopropyl-4-oxo-1,4,5,6-tetrahydropyrrolo[3,4-d]imidazol-2-yl)-5,6-dihydropyridine-1(2H)-carboxylate] | 0.013 | 0.0634 | 0.1675 | 0.024 | 0.0316 | 0.05845 | 6.1 | 0.012 | 0.184 | >10 |
| COc1ccc(-c2nc3c(n2C(C)C)C(c2ccc(Cl)cc2)N(c2cc(C)c4nnc(C(F)F)n4n2)C3=O)cn1 (stereo not drawn) [Example 149, 6-(4-chlorophenyl)-5-(3-(difluoromethyl)-8-methyl-[1,2,4]triazolo[4,3-b]pyridazin-6-yl)-1-isopropyl-2-(6-methoxypyridin-3-yl)-5,6-dihydropyrrolo[3,4-d]imidazol-4(1H)-one] | 0.021 | 0.0333 | 0.0839 | 0.022 | 0.0265 | 0.0435 | > 37 | 0.016 | 0.148 | >10 |
| CCOC(=O)N1CC=C(c2nc3c(n2C(C)C)C(c2ccc(Cl)cc2)N(c2cc(C)c4nnc(C)n4c2)C3=O)CC1 (stereo not drawn) [Example 70, ethyl 4-(6-(4-chlorophenyl)-5-(3,8-dimethyl-[1,2,4]triazolo[4,3-a]pyridin-6-yl)-1-isopropyl-4-oxo-1,4,5,6-tetrahydropyrrolo[3,4-d]imidazol-2-yl)-5,6-dihydropyridine-1(2H)-carboxylate] | 0.017 | 0.0599 | 0.188 | 0.032 | 0.0295 | 0.0413 | 6.65 | 0.0175 | 0.353 | >10 |
| Cc1cc(N2C(=O)c3nc(C4CCOCC4)n(C(C)C)c3C2c2ccc(Cl)cc2)cn2c(C)nnc12 (stereo not drawn) [Example 86, 6-(4-chlorophenyl)-5-(3,8-dimethyl-[1,2,4]triazolo[4,3-a]pyridin-6-yl)-1-isopropyl-2-(tetrahydro-2H-pyran-4-yl)-5,6-dihydropyrrolo[3,4-d]imidazol-4(1H)-one] | < 0.011 | 0.057 | 0.155 | 0.019 | 0.0208 | 0.043 | 3.8 | < 0.011 | 0.249 | >10 |
| Cc1cc(N2C(=O)c3nc(C4CCNCC4)n(C(C)C)c3C2c2ccc(Cl)cc2)cn2c(C)nnc12 (stereo not drawn) [Example 75, 6-(4-chlorophenyl)-5-(3,8-dimethyl-[1,2,4]triazolo[4,3-a]pyridin-6-yl)-1-isopropyl-2-(Piperidin-4-yl)-5,6-dihydropyrrolo[3,4-d]imidazol-4(1H)-one] | 0.024 | 1.6 | 8.63 | 0.027 | 0.78 | 1.125 | 4.9 | 0.017 | 8.65 | >10 |
| COc1cc(N2C(=O)c3nc(C4CCN(C)CC4)n(C(C)C)c3C2c2ccc(Cl)cc2)cc2c1nnn2C (stereo not drawn) [Example 97] | 0.0355 | 0.147 | 0.432 | 0.058 | 0.0384 | 0.0902 | 15.7 | 0.0235 | 0.596 | >10 |
| CC(=O)N1CC=C(c2nc3c(n2C(C)C)C(c2ccc(Cl)cc2)N(c2cc(C)c4nnc(C)n4c2)C3=O)CC1 (stereo not drawn) [Example 66] | 0.066 | 1.76 | 5.86 | 0.086 | 0.233 | 0.43 | 3.45 | 0.0315 | 5.54 | >10 |
| COc1cc(C(F)(F)F)ccc1-c1nc2c(n1C(C)C)C(c1ccc(Cl)cc1)N(c1cc(C)c3nnc(C(F)F)n3c1)C2=O (stereo not drawn) [Example 144, 6-(4-chlorophenyl)-5-(3-(difluoromethyl)-8-methyl-[1,2,4]triazolo[4,3-a]pyridin-6-yl)-1-isopropyl-2-(2-methoxy-4-(trifluoromethyl)phenyl)-5,6-dihydropyrrolo[3,4-d]imidazol-4(1H)-one] | 0.022 | 0.0462 | 0.09295 | 0.026 | 0.0308 | 0.0469 | > 37 | 0.023 | 0.116 | >10 |
| Cc1cc(N2C(=O)c3nc(C4=CCOCC4)n(C(C)C)c3[C@H]2c2ccc(Cl)cc2)cc2c1nnn2C [Example 81, (R)-6-(4-chlorophenyl)-2-(3,6-dihydro-2H-pyran-4-yl)-5-(1,4-dimethyl-1H-benzo[d][1,2,3]triazol-6-yl)-1-isopropyl-5,6-dihydropyrrolo[3,4-d]imidazol-4(1H)-one] | < 0.011 | 0.00382 | 0.0107 | < 0.011 | 0.00342 | 0.005405 | 1.5 | < 0.011 | 0.0195 | >10 |
| COc1ccc(-c2nc3c(n2C(C)C)C(c2ccc(Cl)cc2)N(c2cc(OC)c4nnn(C)c4c2)C3=O)cn1 (stereo not drawn) [Example 113, 6-(4-chlorophenyl)-1-isopropyl-5-(4-methoxy-1-methyl-1H-benzo[d][1,2,3]triazol-6-yl)-2-(6-methoxypyridin-3-yl)-5,6-dihydropyrrolo[3,4-d]imidazol-4(1H)-one] | 0.102 | 0.171 | 0.3595 | 0.1 | 0.125 | 0.186 | > 37 | 0.2 | 0.358 | >10 |
